The values below come from patent EP4803523A1, “FUSED HETEROARYL COMPOUND, PREPARATION METHOD THEREFOR, AND USE THEREOF IN MEDICINE” (Jiangsu Hengrui Pharmaceuticals Co., Ltd., priority 2023, dated 2025).

One series has as its system SW620. The series is described as follows: 3D cell proliferation inhibition assay (CellTiter-Glo 3D). The class given is cell-based. The following applies: Homo sapiens, SW-620, 120 h; SW620 cells, KRAS G12V, 3D culture, 5 days with compound. As to the method:
(§1) This experiment uses the cells listed in the table below to evaluate the inhibitory effects of the compounds on the proliferation of KRAS mutant or KRAS amplified cells.
(§2) On the first day of the experiment, cells that were growing well and had reached 70%-80% confluence were digested, resuspended in culture medium, and the cell density was adjusted to the desired level. In a U-shaped low-attachment 96-well plate (Corning, 7007), 90 µL of cell suspension was added per well, with the cell density as shown in the table above. The cell plate was centrifuged at 2500 rpm for 5 minutes and then placed in an incubator for 24 hours of culture. On the second day, the 20 mM test compound dissolved in DMSO was diluted with DMSO to the first concentration of 2 or 0.2 mM, and then serially diluted in a 5-fold gradient to obtain 9 concentration points, with the control well containing DMSO. The serially diluted compound was then further diluted 20-fold with culture medium. 10 µL of the test compound diluted in culture medium was added to each well of the cell plate. The final concentrations of the compound were 9 points in a 5-fold serial dilution starting from 10 or 1 µM. Cell wells containing 0.5% DMSO were set as vehicle control wells, and wells containing only culture medium and 0.5% DMSO were set as blank control wells. The cell plate was centrifuged at 2000 rpm for 3 minutes and then placed in an incubator for 5 days of culture. On the seventh day, the 96-well cell culture plate was taken out, and 50 µL of the luminescent cell viability detection reagent, CellTiter-Glo® 3D Cell Viability Assay (Promega, G9683), was added to each well. After shaking at room temperature for 25 minutes, the mixture was pipetted up and down to mix, and 100 µL was transferred from each well to a white, opaque-bottom OptiPlate™-96 well plate (PerkinElmer, 6005290). The luminescence signal value was read using a multimode microplate reader (PerkinElmer, EnVision2105).
(§3) The inhibition rate was calculated using the following formula: Inhibition rate = (Luminescence value vehicle control well - Luminescence value test compound)/(Luminescence value vehicle control well - Luminescence value blank control well) × 100%. The IC50 values of the compound inhibitory activity were calculated using Graphpad Prism software. Table 1. Data of inhibitory activity on 3D cell proliferation (unit: nM)
(In general: Cellular ATP, detected with luciferase, serves as a proxy for viable cell number.)

A further series relates to AGS. The description is as above. It is filed as cell-based. The following applies: Homo sapiens, 120 h; AGS cells, KRAS G12D, 3D culture, 5 days with compound. As to the method:
as §1, §2, §3

The next series has as its system MKN1. The series is described as above. It is filed as cell-based. The following applies: Homo sapiens, MKN-1, 120 h; MKN1 cells, KRAS Amp, 3D culture, 5 days with compound. As to the method:
as §1, §2, §3

The test system of a further series is AsPC-1. Described as above. The class given is cell-based. The note with it: Homo sapiens, ASPC1, 120 h; AsPC-1 cells, KRAS G12D, 3D culture, 5 days with compound. As to the method: as §1, §2, §3
In another series the test system is GP2d. Described as above. It is filed as cell-based. The note with it: GP2d, 120 h, GP2d cells, KRAS G12D, 3D culture, 5 days with compound. As to the method:
as §1, §2, §3

The next series has as its system H358. The description is as above. It is filed as cell-based. The note with it: Homo sapiens, NCI-H358, 120 h; H358 cells, KRAS G12C, 3D culture, 5 days with compound. As to the method: as §1, §2, §3
A short description of series [1]: Pharmacokinetic evaluation, mouse experiment (oral gavage, plasma LC-MS/MS). The class given is in vivo. The note with it: balb/c nude mice, female, oral gavage (i.g.), 20.0 mg/kg. How it is done:
Using balb/c nude mice as the test animals, the plasma concentrations of the example compounds at different time points were determined by LC-MS/MS following oral gavage (i.g.) administration. The pharmacokinetic behaviours of the compounds of the present disclosure in mice were investigated, and their pharmacokinetic profiles were evaluated.
Nine balb/c nude mice, female, were provided by Beijing Vital River Laboratory Animal Technology Co., Ltd. (Production License Number: SCXK(Zhejiang) 2024-0001).
A given amount of the test compound was weighed and formulated with 5% DMF + 45% PG + 50% (10% HS15-pH7.4 buffer) to prepare a 2.0 mg/mL clear and colourless solution.
The administration dose was 20.0 mg/kg, and the administration volume was 10 mL/kg.
Blood samples (0.1 ml) were collected from the orbit before administration and at 0.25, 0.5, 1.0, 2.0, 4.0, 6.0, 8.0, 11.0, and 24.0 hours after administration. The samples were placed in EDTA-K2 anticoagulant tubes, centrifuged at 10,000 rpm for 1 minute (4°C), and the plasma was separated within 1 hour and stored at -20°C or -80°C until analysis. The entire process from blood collection to centrifugation was performed in ice bath conditions. Food was provided 2 hours after administration.
The concentration of the test compound in mouse plasma after administration was determined as follows: 20 µL of the plasma sample collected at each time point after administration was taken, and 200 µL of internal standard acetonitrile solution (containing 20 ng/mL verapamil) was added. The mixture was vortexed and then centrifuged at 4000 rpm for 15 minutes; the supernatant was taken for LC-MS/MS analysis.

A further series in a line: in vivo. The following applies: both, SD, rat, plasma, po.

Method for in vivo: Using SD rats as the test animals, the plasma concentrations of the example compounds at different time points were determined by LC-MS/MS following oral gavage (i.g.) administration. The pharmacokinetic behaviours of the compounds of the present disclosure in rats were investigated, and their pharmacokinetic profiles were evaluated.
Blood samples (0.2 mL) were collected from the orbit before administration and at 0.25, 0.5, 1.0, 2.0, 4.0, 6.0, 8.0, 11.0, and 24.0 hours after administration. The samples were placed in EDTA-K2 anticoagulant tubes, centrifuged at 10,000 rpm for 2 minute (4°C), and the plasma was separated within 1 hour and stored at -20°C or -80°C until analysis. The entire process from blood collection to centrifugation was performed in ice bath conditions.
The mixture was vortexed and then centrifuged at 4000 rpm for 15 minutes; the supernatant was taken for LC-MS/MS analysis. […] The mixture was vortexed and then centrifuged at 3700 rpm for 10 minutes; the supernatant was taken for LC-MS/MS analysis.
The mixture was vortexed and then centrifuged at 4000 rpm for 15 minutes; the supernatant was taken for LC-MS/MS analysis. […] The mixture was vortexed and then centrifuged at 4000 rpm for 15 minutes; the supernatant was taken for LC-MS/MS analysis.

With `N#Cc1c(N)sc2c(F)ccc(-c3c4c(c5cnc(OCC67CCCN6CC(=C(F)F)C7)nc5c3F)COC4)c12` (single isomer, unassigned) [Example 44A], the half-inhibitory concentration (IC50) (commonly the midpoint of a concentration-inhibition curve) in the series with SW620 was found to be 3.4 nM; in the series with AGS it was 5.03 nM; in the series with MKN1 it was 1.3 nM; in the series on AsPC-1 it was 8.36 nM; with GP2d, 2.59 nM; in the series with H358, 2.78 nM.
In the case of `C[C@@H](O)CN1CC2CCC(C1)N2c1nc(OCC2(CN3CCC(=C(F)F)CC3)CC2)nc2c(F)c(-c3ncc(F)c4sc(N)c(C#N)c34)c3c(c12)COC3` [Example 2, 2-amino-4-(3-((1-((4-(difluoromethylene)piperidin-1-yl)methyl)cyclopropyl)methoxy)-5-fluoro-1-(3-((R)-2-hydroxypropyl)-3,8-diazabicyclo[3.2.1]oct-8-yl)-7,9-dihydrofuro[3,4-f]quinazolin-6-yl)-7-fluorothieno[3,2-c]pyridine-3-carbonitrile], the values for the IC50 with AGS, with AsPC-1 and in the series with GP2d were 2.36 nM, 6.18 nM and 1.79 nM, respectively. The figures for the Vd/F (in series [1] (read-out: Apparent volume of distribution Vz/F); in “in vivo” (20 mg/kg); in the series “in vivo” (40 mg/kg)) were 9.07 L/kg, 28 L/kg and 19.6 L/kg, respectively. The AUC(0-t) in series [1] (read-out: Area under the curve AUC0-t) came to 9100 ng·h/mL; in “in vivo” (20 mg/kg), 5170 ng·h/mL; in “in vivo” (40 mg/kg), 17600 ng·h/mL. The CL/F in series [1] (read-out: Clearance CL/F) was 36.5 mL/min/kg; in the series “in vivo” (20 mg/kg), 65.5 mL/min/kg; in “in vivo” (40 mg/kg) it was 36.7 mL/min/kg. Besides, the values for the half-life (in series [1] (read-out: Half life T1/2 (converted)); in the series “in vivo” (20 mg/kg); in “in vivo” (40 mg/kg)) were 2.87 h, 5.52 h and 6.7 h, respectively. Besides, the Cmax amounted to 1060 ng/mL in series [1] (read-out: Plasma concentration Cmax), 377 ng/mL in the series “in vivo” (20 mg/kg) and 1170 ng/mL in “in vivo” (40 mg/kg).
With `N#Cc1c(N)sc2c(F)ccc(-c3c4c(c5cnc(OCC67CCCN6CC(=CF)C7)nc5c3F)COC4)c12` (stereo not shown) [Example 15, 2-Amino-7-fluoro-4-(5-fluoro-3-((2-(fluoromethylene)tetrahydro-1H-pyrrolizin-7a(5H)-yl)methoxy)-7,9-dihydrofuro[3,4-f]quinazolin-6-yl)benzo[b]thiophene-3-carbonitrile], the IC50 was found to be 7.9 nM in the series on SW620; 9.12 nM in the series with AGS; 6.9 nM in the series with MKN1; 14.7 nM in the series on AsPC-1; 1.71 nM in the series on GP2d.
`N#Cc1c(N)sc2c(F)ccc(-c3c4c(c5cnc(OCC67CCCN6CC(=C(F)F)C7)nc5c3F)COC4)c12` (stereo not shown) [Example 27, 2-Amino-4-(3-((2-(difluoromethylene)tetrahydro-1H-pyrrolizin-7a(5H)-yl)methoxy)-5-fluoro-7,9-dihydrofuro[3,4-f]quinazolin-6-yl)-7-fluorobenzo[b]thiophene-3-carbonitrile]: the IC50 in the series with SW620 was found to be 12.4 nM; in the series on MKN1, 8.2 nM; with GP2d, 6.61 nM; in the series with H358, 8.85 nM.
On to `N#Cc1c(N)sc2c(F)ccc(-c3c4c(c5c(C6CC6)nc(OC[C@@]67CCCN6C[C@H](F)C7)nc5c3F)COC4)c12` [Example 36, 2-Amino-4-(1-cyclopropyl-5-fluoro-3-(((2R,7aS)-2-fluorotetrahydro-1H-pyrrolizin-7a(5H)-yl)methoxy)-7,9-dihydrofuro[3,4-f]quinazolin-6-yl)-7-fluorobenzo[b]thiophene-3-carbonitrile], for which the IC50 in the series on SW620 amounted to 10.1 nM; in the series on H358, 8.04 nM.
Turning to `N#Cc1c(N)sc2c(F)ccc(-c3c4c(c5cnc(OCC6(CN7CCC(=CF)CC7)CC6)nc5c3Cl)COC4)c12` [Example 39, 2-Amino-4-(5-chloro-3-((1-((4-(fluoromethylene)piperidin-1-yl)methyl)cyclopropyl)methoxy)-7,9-dihydrofuro[3,4-f]quinazolin-6-yl)-7-fluorobenzo[b]thiophene-3-carbonitrile], the IC50 was 12.7 nM in the series on SW620; 4.07 nM in the series with AGS; 4 nM with MKN1; 7.65 nM with AsPC-1; 2.95 nM with GP2d; 4.76 nM in the series on H358.
Regarding `C=CC(=O)N1CC2CCC(C1)N2c1nc(OCC2(CN3CCC(=C(F)F)CC3)CC2)nc2c(F)c(-c3ncc(F)c4sc(N)c(C#N)c34)c3c(c12)COC3` [Example 55], the IC50 in the series on H358 was 0.63 nM.
Take `C=CC(=O)N1C[C@H](C)N(c2nc(OCC3(CN4CCC(=C(F)F)CC4)CC3)nc3c(F)c(-c4ncc(F)c5sc(N)c(C#N)c45)c4c(c23)COC4)C[C@H]1C` [Example 56]: the IC50 in the series with H358 worked out at 6.76 nM.
